pIC50: −log10 of the molar value. Blank lines part the entries; values can stand above or below the compound they belong to.
How the values were obtained:
[1] = target: Catalytic domain of MMP-9 (human recombinant) (Homo sapiens (Human), UniProt P14780); test: MMP-9 inhibition assay; type: biochemical; details: compound 10 microMolar; substrate DNP-Pro-Cha-Gly-Cys(Me)-His-Ala-Lys(N-Me-Abz)-NH2 10 microMolar; <50% considered not active; read-out: Average Percent Inhibition MMP-9
[2] = In-vitro rat microsomal stability; type: in vitro ADME; details: rat microsomes, compound 1 microMoles, at T = 60 minutes
Description: (§1) Human and Rat microsomal stability was determined for select compounds following the method of Houston (Houston, J B; Biochem. Pharmacol. 47, (1994), 1469). 1 μM concentration of compound and separate human and Rat microsomes (0.3 mg/mL, BD bioscience) were used in the in-vitro assay. To ensure proper energy supply for microsomal degradation of compound, an energy regenerating system comprised of 100 mM potassium phosphate, 2 mM NADPH, 3 mM MgCl2, pH=7.4 and the microsomal protein is added to each sample and the resulting suspension is then incubated in duplicate for 60 min at 37° C. in a rotary shaker. A control is run for each test agent in duplicate omitting NADPH to detect NADPH-free degradation. At T=0 and T=60 min., an aliquot is removed from each experimental and control reaction and then mixed with an equal volume of ice-cold Stop Solution (consisting of 0.3% acetic acid in acetonitrile containing haloperidol and diclofenac as internal standards). Stopped reactions are then incubated for at least ten minutes at −20° C., and an additional volume of water is then added. The samples are then centrifuged to remove precipitated protein, and the supernatants are then analyzed by LC-MS/MS to determine the percentage of compound remaining. The LC-MS/MS system used was an Agilent 6410 mass spectrometer coupled with an Agilent 1200 HPLC and a CTC PAL chilled autosampler, all controlled by MassHunter software (Agilent), or an ABI2000 mass spectrometer coupled with an Agilent 1100 HPLC and a CTC PAL chilled autosampler, all controlled by Analyst software (ABI). After separation on a C18 reverse phase HPLC column (Agilent, Waters, or equivalent) using an acetonitrile-water gradient system, peaks were analyzed by mass spectrometry (MS) using ESI ionization in MRM mode. Verapamil (high metabolized) and Warfarin (low metabolized) are used as controls to test the activity of the microsomal proteins. Table 15 and 16 below show the microsomal stability of select compounds in both human and Rat microsomes.

[3] = target: Catalytic domain of MMP-2 (human recombinant) (Homo sapiens (Human), UniProt P08253); test: MMP-2 inhibition assay; details: read-out: Average Percent Inhibition MMP-2
Description: A concentration of MMP inhibitor of the present invention was tested (10 microMolar) in duplicate runs. Catalytic domain of MMP-2 (human recombinant) enzyme (10 nanoMolar) was added to the compound solution. The mixture of enzyme and compound in assay buffer was then thoroughly mixed and incubated for 60 minutes at 37° C. Upon the completion of incubation, the assay was then started by the addition of 10 μM of fluorescent substrate Mca-P-L-G-L-Dpa-A-R-NH2 (Kd ˜8 microMolar). The fluorescent product, McaPLG, was then measured at excitation of 355 nm and emission 405 nm by an automatic plate multireader at 37° C. […] Any inhibition <50% is considered not active under these assay conditions.

[4] = In-vitro human microsomal stability; type: in vitro ADME; details: human microsomes, compound 1 microMoles, at T = 60 minutes
Description: as §1

[5] = clinical; cited from earlier work
[6] = target: Catalytic domain of MMP-3 (human recombinant) (Homo sapiens (Human), UniProt P08254); test: MMP-3 inhibition assay; type: biochemical; details: compound 10 microMolar; substrate McaRPKPVENvalWRK(Dnp)NH2 10 microMolar; <50% considered not active; read-out: Average Percent Inhibition MMP-3
Description: Catalytic domain of MMP-3 (human recombinant) enzyme was then added to the compound solution. […] A positive control was then run separately using the broad spectrum MMP inhibitor Tyr-hydroxamic acid as a control compound. […]

[7] = target: Catalytic domain of MMP-13 (human recombinant) (Homo sapiens (Human), UniProt P45452); test: MMP-13 inhibition assay; type: biochemical
Description: Catalytic domain of MMP-13 (human recombinant) enzyme was then added to the compound solution. […] The time-dependent increase in fluorescence is measured at the 355 nm excitation and 405 nm emission by automatic plate multireader.

[8] = In vivo rat pharmacokinetics, oral administration; details: plasma, PO 1.0 mg/kg, male Lewis rats, mean
Description: Six (6) male Lewis rats were used. Fasting was conducted at least 16 hours prior to dose administration. Food was returned at approximately 4 hours post dose. The animals were placed into 2 groups of 3 animals per group. The oral (PO) formulation for Groups 1 & 2 were prepared on the day of dosing at a target concentration of 0.5 mg/mL in 0.5% Methylcellulose (400 cps) to produce a white, homogeneous suspension. Dosing was performed as outlined in Table 24:
Each animal in Group 1 received prepared compound (56) by oral dose administration at a target dose level of 1.0 mg/kg and at a dose volume of 2 mL/kg. Each animal in Group 2 received prepared compound (45) by oral dose administration at a target dose level of 1.0 mg/kg and at a dose volume of 2 mL/kg (Table 24). Whole blood samples (0.250 mL; K2EDTA anticoagulant) were collected from each animal through a jugular vein catheter. Whole blood samples were collected from all animals pre-dose, and at 0.25, 0.5, 1, 2, 4, 8, 16, and 24 hours after dose administration. All blood samples were immediately placed on ice until processing. Whole blood samples were centrifuged at 2200×g for 10 minutes in a refrigerated centrifuge (5±3° C.) to isolate plasma. The plasma samples were transferred to individual polypropylene vials and immediately placed on dry ice before storage at nominally −20±5° C. The plasma samples some time later were then thawed and extracted and analyzed by high pressure liquid chromatography (HPLC) coupled to Mass Spectrometery (MS) (Table 25). Pharmacokinetic parameters (Table 25) were estimated using WinNonlin® pharmacokinetic software (Version No. 5.2.1) using a non-compartmental approach consistent with the PO route of administration.

[9] = target: Catalytic domain of MMP-1 (human recombinant) (Homo sapiens (Human), UniProt P03956); test: MMP-1 inhibition assay; type: biochemical; details: compound 10 microMolar; substrate 10 microMolar; <50% considered not active; read-out: Average Percent Inhibition MMP-1
[10] = target: MMP-12 (Homo sapiens (Human), UniProt P39900); test: MMP-12 inhibition assay (electrophoretic mobility shift); type: biochemical; details: compound 10 microMolar; Fluorescein-labeled peptide 4 microMolar; <50% considered not active; read-out: Average Percent Inhibition MMP-12
Description: MMP-12 inhibitor activity was carried out by first separating the cleaved and uncleaved substrates by charge via electrophoretic mobility shift and then measuring the fluorescence of the separated products and comparing them with control reactions to determine inhibition of enzyme activity. The MMP-12 assay was then run using an assay buffer comprising of 100 mM HEPES, pH 7.5, 0.01% Brij-35, 1.5 mM NaCl and 2 mM CaCl2. […] The reaction was started by first adding the substrate and then incubating the reaction mixture for 1 hour at room temperature. The reaction was then terminated via the addition of a stop buffer consisting of 100 mM HEPES (pH 7.5), 30 mM EDTA, 0.015% Brij-35, and 5% DMSO. […]

MMP-12, sequence (P39900 106-470, species assumed): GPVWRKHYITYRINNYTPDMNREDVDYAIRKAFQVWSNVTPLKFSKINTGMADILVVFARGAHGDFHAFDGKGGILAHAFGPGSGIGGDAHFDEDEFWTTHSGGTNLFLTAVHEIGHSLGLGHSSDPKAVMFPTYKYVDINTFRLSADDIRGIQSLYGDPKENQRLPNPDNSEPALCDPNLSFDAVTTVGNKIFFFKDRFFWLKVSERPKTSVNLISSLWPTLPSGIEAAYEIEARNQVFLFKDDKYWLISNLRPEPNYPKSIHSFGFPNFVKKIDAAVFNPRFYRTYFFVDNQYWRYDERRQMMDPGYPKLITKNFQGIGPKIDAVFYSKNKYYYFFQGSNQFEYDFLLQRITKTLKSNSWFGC
Catalytic domain of MMP-9 (human recombinant), sequence (P14780 107-444): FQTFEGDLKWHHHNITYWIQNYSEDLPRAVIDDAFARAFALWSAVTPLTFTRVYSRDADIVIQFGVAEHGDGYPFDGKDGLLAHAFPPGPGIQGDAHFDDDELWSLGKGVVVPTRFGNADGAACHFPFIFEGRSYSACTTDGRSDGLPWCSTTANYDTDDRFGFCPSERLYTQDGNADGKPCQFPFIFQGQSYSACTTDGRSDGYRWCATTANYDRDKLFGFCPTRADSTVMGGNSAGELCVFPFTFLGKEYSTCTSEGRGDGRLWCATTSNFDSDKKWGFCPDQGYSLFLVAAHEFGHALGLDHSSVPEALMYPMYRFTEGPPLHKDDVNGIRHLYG
Catalytic domain of MMP-2 (human recombinant), sequence (P08253 110-465): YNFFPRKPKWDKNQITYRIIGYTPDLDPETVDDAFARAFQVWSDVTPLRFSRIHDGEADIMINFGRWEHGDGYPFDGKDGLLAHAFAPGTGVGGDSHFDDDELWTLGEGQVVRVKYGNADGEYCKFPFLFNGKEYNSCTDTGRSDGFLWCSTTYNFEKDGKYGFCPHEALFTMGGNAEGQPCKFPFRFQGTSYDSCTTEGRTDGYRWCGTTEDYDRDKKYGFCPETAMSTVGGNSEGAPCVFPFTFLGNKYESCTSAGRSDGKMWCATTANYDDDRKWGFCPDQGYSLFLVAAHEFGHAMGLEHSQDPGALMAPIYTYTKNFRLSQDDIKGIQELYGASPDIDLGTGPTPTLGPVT
Catalytic domain of MMP-3 (human recombinant), sequence (P08254 100-272): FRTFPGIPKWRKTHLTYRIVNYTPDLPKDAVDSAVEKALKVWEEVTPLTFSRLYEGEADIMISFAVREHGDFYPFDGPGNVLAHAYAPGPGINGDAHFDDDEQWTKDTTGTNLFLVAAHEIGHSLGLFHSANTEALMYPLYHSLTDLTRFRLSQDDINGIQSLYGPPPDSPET
Catalytic domain of MMP-1 (human recombinant), sequence (P03956 98-276): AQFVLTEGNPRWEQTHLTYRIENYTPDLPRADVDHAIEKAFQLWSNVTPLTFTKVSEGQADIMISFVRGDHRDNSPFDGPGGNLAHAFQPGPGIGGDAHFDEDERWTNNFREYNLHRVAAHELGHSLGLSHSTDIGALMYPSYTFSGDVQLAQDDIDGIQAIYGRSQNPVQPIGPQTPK

Structure (SMILES): [2H]C([2H])(NC(=O)c1cc(C(=O)NC([2H])([2H])c2ccc(F)c(C)c2)ncn1)c1ccc(F)c(C)c1 [drawing 270]
Mean Remaining Parent with NADPH (%) [4]: 5.5%

Structure (SMILES): [2H]C([2H])(NC(=O)c1cc(C(=O)NCc2ccc(C(=O)O)cc2)ncn1)c1ccc(F)c(C)c1 [drawing 266]
Mean Remaining Parent with NADPH (%) [4]: 95.6%

Structure (SMILES): CNC(=O)[C@@H](NC(=O)[C@H](CC(C)C)[C@H](O)C(=O)NO)C(C)(C)C [Marimastat, marimastat]
Toxicities in humans [5]: time-dependent and dose-dependent musculoskeletal toxicities (arthralgia, myalgia, tendinitis)

Structure (SMILES): COc1cccc(CNC(=O)c2cc(C(=O)NCc3ccc(-c4nnn[nH]4)cc3)ncn2)c1 [drawing 267]
Mean Remaining Parent with NADPH (%) [4]: 88.1%

Structure (SMILES): Cc1cc(CNC(=O)c2cc(C(=O)NCc3ccc(C(=O)O)cc3)ncn2)ccc1F [drawing 264]
Mean Remaining Parent with NADPH (%) [4]: 103%

Structure (SMILES): [2H]C([2H])(NC(=O)c1cc(C(=O)NCc2ccc(F)c(C)c2)ncn1)c1ccc(C(=O)O)cc1 [Compound 56, 4-(Dideutero-{[6-(4-fluoro-3-methyl-benzylcarbamoyl)-pyrimidine-4-carbonyl]-amino}-methyl)-benzoic acid]
AUC(0-inf) [8]: 705 ng·h/mL | AUC(0-t) [8]: 697 ng·h/mL | Cmax [8]: 362 ng/mL | Tmax [8]: 45 min | half-life [8]: 73.2 min

Structure (SMILES): [2H]C([2H])(NC(=O)c1cc(C(=O)NCc2ccc(-c3nn[nH]n3)cc2)ncn1)c1cccc(OC)c1 [drawing 268]
Mean Remaining Parent with NADPH (%) [4]: 95.3%

Structure (SMILES): [2H]C([2H])(NC(=O)c1cc(C(=O)NCc2ccc(F)c(C)c2)ncn1)c1ccc(C(=O)O)cc1 [drawing 265]
Mean Remaining Parent with NADPH (%) [4]: 104%

Structure (SMILES): [2H]C([2H])(NC(=O)c1cc(C(=O)NCc2cccc(OC)c2)ncn1)c1ccc(C(=O)O)cc1
pIC50 [7]: > 7.00

Structure (SMILES): Cc1cc(CNC(=O)c2cc(C(=O)NCc3ccc(C(=O)O)cc3)ncn2)ccc1F [Compound 45, 4-({[6-(4-Fluoro-3-methyl-benzylcarbamoyl)-pyrimidine-4-carbonyl]-amino}-methyl)-benzoic acid]
AUC(0-inf) [8]: 428 ng·h/mL | AUC(0-t) [8]: 414 ng·h/mL | Cmax [8]: 310 ng/mL | Tmax [8]: 24.6 min | half-life [8]: 110 min

Structure (SMILES): Cc1cc(CNC(=O)c2cc(C(=O)NCc3ccc(F)c(C)c3)ncn2)ccc1F [drawing 269]
Mean Remaining Parent with NADPH (%) [4]: 5.3%

The remaining lines, values ahead:

inhibition at 10 µM [1]: 2.39%
Structure (SMILES): [2H]C([2H])(NC(=O)c1cc(C(=O)NCc2ccc(C(=O)O)cc2)ncn1)c1ccc(F)c(C)c1 [drawing 279]

% Mean Remaining Parent with NADPH (%) [2]: 52.8%
Structure (SMILES): COc1cccc(CNC(=O)c2cc(C(=O)NCc3ccc(-c4nnn[nH]4)cc3)ncn2)c1 [drawing 274]

% Mean Remaining Parent with NADPH (%) [2]: 57.4%
Structure (SMILES): [2H]C([2H])(NC(=O)c1cc(C(=O)NCc2ccc(-c3nn[nH]n3)cc2)ncn1)c1cccc(OC)c1 [drawing 275]

inhibition at 10 µM [3]: 8.19%
Structure (SMILES): [2H]C([2H])(NC(=O)c1cc(C(=O)NCc2ccc(C(=O)O)cc2)ncn1)c1ccc(F)c(C)c1 [drawing 278]

% Mean Remaining Parent with NADPH (%) [2]: 98.5%
Structure (SMILES): [2H]C([2H])(NC(=O)c1cc(C(=O)NCc2ccc(F)c(C)c2)ncn1)c1ccc(C(=O)O)cc1 [drawing 273]

% Mean Remaining Parent with NADPH (%) [2]: 90.7%
Structure (SMILES): Cc1cc(CNC(=O)c2cc(C(=O)NCc3ccc(C(=O)O)cc3)ncn2)ccc1F [drawing 271]

inhibition at 10 µM [6]: 1.31%
Structure (SMILES): [2H]C([2H])(NC(=O)c1cc(C(=O)NCc2ccc(C(=O)O)cc2)ncn1)c1ccc(F)c(C)c1 [drawing 281]

% Mean Remaining Parent with NADPH (%) [2]: 1.7%
Structure (SMILES): [2H]C([2H])(NC(=O)c1cc(C(=O)NC([2H])([2H])c2ccc(F)c(C)c2)ncn1)c1ccc(F)c(C)c1 [drawing 277]

% Mean Remaining Parent with NADPH (%) [2]: 87.4%
Structure (SMILES): [2H]C([2H])(NC(=O)c1cc(C(=O)NCc2ccc(C(=O)O)cc2)ncn1)c1ccc(F)c(C)c1 [drawing 272]

inhibition at 1 µM ([7]; read-out: Average Percent Inhibition MMP-13): 92%
Structure (SMILES): [2H]C([2H])(NC(=O)c1cc(C(=O)NCc2ccc(-c3nn[nH]n3)cc2)ncn1)c1cccc(OC)c1 [drawing 283]

pIC50 [7]: > 7.00
Structure (SMILES): [2H]C([2H])(NC(=O)c1cc(C(=O)NCc2ccc(F)c(C)c2)ncn1)c1ccc(C(=O)O)cc1 [drawing 285]

% Mean Remaining Parent with NADPH (%) [2]: 0.6%
Structure (SMILES): Cc1cc(CNC(=O)c2cc(C(=O)NCc3ccc(F)c(C)c3)ncn2)ccc1F [drawing 276]

inhibition at 10 µM [9]: 1.83%
Structure (SMILES): [2H]C([2H])(NC(=O)c1cc(C(=O)NCc2ccc(C(=O)O)cc2)ncn1)c1ccc(F)c(C)c1 [drawing 280]

inhibition at 10 µM [10]: 0.68%
Structure (SMILES): [2H]C([2H])(NC(=O)c1cc(C(=O)NCc2ccc(C(=O)O)cc2)ncn1)c1ccc(F)c(C)c1 [drawing 282]

pIC50 [7]: > 7.00
Structure (SMILES): [2H]C([2H])(NC(=O)c1cc(C(=O)NCc2ccc(C(=O)O)cc2)ncn1)c1ccc(F)c(C)c1 [drawing 284]

From patent US9505743B2, “Matrix metalloproteinase inhibitors and methods for the treatment of pain and other diseases” (AQUILUS PHARMACEUTICALS, INC., priority 2012, dated 2016)
